Molecules are shown by their SMILES. “And” between values parts separate entries of the source, which are not always exact repeats. Equal entries are not always repeated.

The subject of assay [1] is HT-22 cells. Kind of assay: CNP-recorded membrane potential of HT-22 cells during ionic (K+) enrichment, current-clamp. It is filed as cell-based, mouse. Particulars: for depolarization of membrane potential: KCl added to cell bath; for time for cell to return to its RMP: after KCl. From the text:
Because the cell membrane is highly permeable to potassium ions (K^+), an increase or decrease in extracellular K+ concentration will, respectively, cause a resting cell to depolarize (membrane potential becoming more positive) or hyperpolarize (membrane potential becoming more negative). Utilizing CNPs, variations in membrane potential were monitored over tens of minutes. FIG. 8A is a recording of membrane potential from an HT-22 cell during perfusion intervals with normal HBSS and K+-enriched HBSS (additional 5 mM K^+). […] After approximately 2 min at higher extracellular K^+, the cell was perfused with normal HBSS and the cell slowly returned to its RMP.
Next, a CNP was used to measure changes in membrane potential during repetitive extracellular administration of KCl [FIG. 8B]. After penetrating the cell, as indicated by the arrow in FIG. 8B, the CNP measured a stable RMP under normal HBSS perfusion (Emp=−68 mV). […] Under constant perfusion in normal HBSS, the membrane potential returned to its original value after […]. The results were reproducible with high fidelity.
FIG. 8C is a representation of potential variations as a function of time during the administration of HBSS and the varied K+-enrichment of HBSS (additional 5 and 15 mM K^+). […] As normal HBSS perfusion brought the bath back to its initial K+ concentration, the cell returned to its RMP in ˜90 seconds.
The mouse hippocampal cell line HT-22 was kindly provided by Dr. David Schubert (The Salk Institute, San Diego, Calif.). Cells were grown in Dulbecco's Modified Eagle Medium (DMEM, high glucose) supplemented with 10% fetal bovine serum (FBS) and 1% antibiotics. The cells were plated on 12 mm cover slips 48 hrs prior to the electrophysiology measurements. The cells on the cover slips were incubated in HBSS (with calcium and magnesium) at room temperature for 10 min prior to measurements. The cover slips were subsequently placed in an open diamond perfision bath (Warner Instruments Corp., RC-22C) positioned on an upright microscope (Nikon eclipse E600FN, 40× water-immersion lens, Burleigh Gibraltar fixed-stage platform) located atop a vibration-isolation table. Cells were routinely perfised with HBSS at a flow rate of 1.0 mllmin.
Membrane potential measurements were recorded with an Axon AxoClamp-2A amplifier equipped with a headstage for high resistance electrodes (Axon HS2-XO.OlMU) and Digidata 1322A digitizer (Axon Instruments/Molecular Devices, Sunnyvale, Calif.). Experimental protocols were controlled and data acquired by a personal computer using the Clampex 8.2 software (Axon Instruments). CNPs were inserted into a standard electrode holder until the metal wire of the holder came in contact with the inner carbon film of the CNP. A slight positive pressure was applied through the holder's perfixion port to keep external solution from filling the hollow CNP by capillarity. A micromanipulator (Narishige MHW-3) was used to manipulate and position the CNP electrodes during the electrophysiology measurements. All the electrical measurements were carried out versus an AgIAgCl reference electrode submerged in HBSS in discontinuous current clamp @CC) mode, at zero current, with no capacitance compensation. The CNP potential was nulled (+I-2 mV) with the amplifier offset potential during immersion in HBSS before all electrical measurements. Recorded electrical measurements were not adjusted to compensate for differences in extracellular and intracellular junction potentials.

Assay [2] deals with GABAA receptor. Kind of assay: CNP-recorded membrane potential of HT-22 cells during pharmacological stimulation (GABA, bicuculline), current-clamp. The format is cell-based, mouse.
Description: Y-aminobutyric acid (GABA), a principal inhibitory neurotransmitter in the mammalian central nervous system which acts as an agonist for the membrane-bound GABAA receptor, was administered. When GABA binds to the GABAA receptor, the cell hyperpolarizes as a result of C1-ion influx due to the opening of the ligand-gated C1-ion channel. However, the hyperpolarization can be blocked by perfusing cells with bicuculline (BIC), a competitive antagonist for the GABAA receptor which binds to the GABAA receptor and prevents it from opening even in the presence of GABA.
FIG. 10A illustrates how an HT-22 cell responded when GABA was added to the cell bath (12 mM GABA in bath, arrow).
FIG. 10B represents the opposing membrane responses to such stimuli over time.

Consider `[Cl-].[K+]` [KCl, Potassium chloride], for which the “depolarization of membrane potential” value in assay [1] (additional 5 mM K+, RMP -57 mV, FIG. 8C) was 10 mV; in assay [1] (additional 15 mM K+, RMP -57 mV, FIG. 8C, FIG. 10B), 30 mV and 25 mV; in assay [1] (additional 25 mM K+, RMP -68 mV, FIG. 8B), 40 mV. Moreover, the “time for cell to return to its RMP” value was about 90 s in assay [1] (additional 5 mM K+, normal HBSS perfusion); ~90 s and 60 s in assay [1] (additional 15 mM K+, HBSS perfusion).
As for `NCCCC(=O)O` [GABA, Y-aminobutyric acid], the “hyperpolarization from the RMP” value in assay [2] (12 mM GABA in bath, normal HBSS perfusion, FIG. 10A, FIG. 10B) was 10 mV and 12 mV. For the same compound, the “time for cell to return to its RMP” value in assay [2] (after 12 mM GABA, constant HBSS perfusion) is 30 s and 60 s.
